Literature values in US20080114028A1, “Process for preparing polymorphic forms of solifenacin succinate” (priority 2006, published 2008).

Conditions: at room temperature in water, glacial acetic acid, dimethylsulfoxide, and methanol

O=C(O[C@H]1CN2CCC1CC2)N1CCc2ccccc2[C@@H]1c1ccccc1 [Solifenacin succinate, solifenacin succinate]
solubility: freely soluble
